Laboratory results published in patent US12503707B2, “Methods, plants and compositions for overcoming nutrient suppression of mycorrhizal symbiosis” (Cambridge Enterprise Limited, priority 2020, dated 2025).

How the values were obtained:
[1] = system: H. vulgare root epidermal cells; assay: LCO-induced nuclear calcium oscillations after strigolactone, karrikin and/or CEP pre-treatment; format: cell-based, Hordeum vulgare; settings: then 10^−7 M SmLCO
Experimental: (§1) FIGS. 11A-11B provide the effects of strigolactone or karrikin treatment on M. truncatula (FIG. 11A) and H. vulgare (FIG. 11B) root epidermal cell nuclear calcium oscillations. FIG. 11A provides traces of nuclear calcium oscillations produced by M. truncatula root epidermal cells. Cells were grown under high phosphate and limiting nitrate levels (3.75 mM PO4^− and 0 mM NO3^−). The top trace represents control cells that were pretreated with buffer alone; the second trace represents cells that were pretreated with 1 μM of strigolactone 5-deoxystrigol for 12 hours; and the third trace represents cells that were pretreated with a 1 μM mixture of karrikin 1 and karrikin 2 (KARs) for 12 hours. All cells were secondarily treated with 10^−8 M NS-LCO. The scale bar indicates a span of 10 minutes, and the fractions indicate the number of cells that responded over the total number of cells analyzed.
FIGS. 14A-14D provide the effects of treating H. vulgare plants with a strigolactone or with both a strigolactone and a CEP peptide. […] The scale bar indicates a span of 10 minutes, and the fractions indicate the number of cells that responded over the total number of cells analyzed. FIGS. 14B-14C provide the level of mycorrhizal colonization of H. vulgare when treated with the synthetic strigolactone analog GR24 under different nutrient conditions, as determined in two separate experiments. […]

[2] = system: H. vulgare LysM receptor-like kinase homologs; assay: LysM receptor-like kinase gene expression by RT-qPCR after strigolactone or karrikin treatment; format: in vivo, Hordeum vulgare; settings: −N+P plates for 4 days, then 0.1 μM for 24 hours; relative to DMSO mock
Text: FIG. 13 provides the relative expression levels of H. vulgare genes, including LysM receptor-like kinase homologs, in response to treatment with strigolactone or karrikin signaling molecules, as determined by qPCR. The H. vulgare gene is indicated on the x-axis including, from left to right, HvSTH7b (a homolog of Arabidopsis STH7, a karrikin-responsive gene (Nelson et al., 2010, PNAS)), HvRLK2, HvRLK3, HvRLK7, HvRLK9, and HvRLK10. Relative expression levels are shown on the y-axis. Values shown are the mean of three samples±SD. ** indicates P<0.01, and * indicates 0.01<P<0.05, as determined by a Student's t-test. […]
Wild type H. vulgare plants tested in FIG. 13 were grown on BNM plates for four days, and the plate roots were then treated with either 0.1 μM 5′-deoxystrigol (Chiralix), a mixture of 0.1 μM Karrikin 1 or 0.1 μM Karrikin 2 (Chiralix), or 0.1 μM GR24 (Chiralix) in liquid BNM for 24 hours. […] Real-time quantitative PCR (RT-qPCR) was performed using SensiFAST SYBR No-ROX Kit. An H. vulgare ADP gene was used as a reference gene, and fold changes were calculated for 5′-deoxystrigol-, karrikins- or GR24-treated roots with respect to DMSO-treated roots (mock treatment). […]

[3] = system: M. truncatula root epidermal cells; assay: LCO-induced nuclear calcium oscillations after strigolactone or karrikin pre-treatment; format: cell-based, Medicago truncatula; settings: 3.75 mM PO4− and 0 mM NO3−; 1 μM pre-treatment for 12 hours, then LCO
Experimental: as §1
In FIGS. 11A-11B, M. truncatula (FIG. 11A) and H. vulgare (FIG. 11B) plants were grown on media containing high phosphate and limiting nitrate (3.75 mM PO4^− and 0 mM NO3^− for M. truncatula; 0 mM NO3^− and 0.5 mM PO4^− for H. vulgare). H. vulgare pants tested in FIG. 14A were grown on BNM media containing high nitrate and high phosphate (5 mM NO3^− and 0.5 mM PO4^−). […]

expression of LysM receptor-like kinase genes, including RLK10 [2]: induced
Substance: 5-deoxystrigol [strigolactone]
symbiotic calcium oscillations under replete phosphate after pre-treatment ([1]; 0 mM NO3− and 0.5 mM PO4−, 1 μM pre-treatment for 12 hrs): overrode phosphate suppression of symbiotic calcium oscillations | LCO induction of calcium oscillations under high nitrate after pre-treatment ([1]; 5 mM NO3− and 0.5 mM PO4−, 1 μM SL): only limited LCO induction of calcium oscillations | symbiotic calcium oscillations under replete phosphate after pre-treatment [3]: overrode phosphate suppression of symbiotic calcium oscillations
